The values below come from patent US5449608A, “Parvovirus B19 receptor and parvovirus B19 detection” (The United States of America as represented by the …, priority 1993, dated 1995).

Bounds are passed on as bounds.

One data set concerns human red cells. Put plainly: Hemagglutination (HA) assay with reagent-treated erythrocytes and B19 empty capsids. Format: cell-based. The following applies: for Change in HA titer (log2): erythrocytes incubated with agent at 37° C.; for Effect of red cell treatment on binding of virus to the erythrocytes: human red cells treated with agent. An excerpt:
(§1) The B19 parvovirus receptor was identified utilizing a hemagglutination (HA) assay as described in Brown and Cohen (1992). Briefly, the ability of B19 to hemagglutinate human red cells was utilized to evaluate the ability of certain compounds to inhibit agglutination in the assay. Cellular components from red cell membranes were fractionated and their reactivity evaluated in the HA assay. Lipid extraction and purification of glycolipid fractions followed by evaluation in the HA assay identified the glycosphingolipid, globoside, as the cellular receptor for B19. Further, biochemical characterization and HA evaluation identified the polysaccharide GalNAc(β,3-3)Gal(α1-4)Gal(β,1-4)Glc as the specific binding domain for B19. […] Antibodies specific for globoside were also utilized in the assay to block infectivity to verify that globoside was the receptor.
In order to characterize the physical nature of the B19 receptor, human red cells were treated with a variety of agents and the change in hemagglutination (HA) titer measured (ICE. Brown et al. (1992)) (Table 1).
Table 1. Washed erythrocytes (0.5% v/v) were incubated at 37° C.
with the reagents, washed twice in saline and resuspended at 0.5%. The
cells were used in a standard hemagglutination assay using B19 empty
capsids produced in insect cells (Brown and Cohen (1992)) the end point
was 50% HA (1 HA50). In the table, therefore, an increasing the HA
titer (log2) by a factor of one reflects a doubling of the measured

Data set [1] concerns B19 empty capsids. Put plainly: Hemagglutination inhibition assay (HAI). Format: binding, parvovirus B19. The following applies: for HAI titer: Purified glycosphingolipid, 1 mg/ml in saline, 4-8 HA50 units of virus capsid.
Source text: as §1
To identify the B19 cellular receptor, the ability of B19 to agglutinate red cells and B19 infectivity assays were used as measures of viral binding. It had been previously shown that B19 parvovirus empty capsids (S. Kajigaya et al. (1991)) agglutinate human red cells Brown and Cohen (1992)), and we tested the ability of membrane extracts from different cell types to block B19 binding in the hemagglutination assay (HA). Membrane extracts were prepared using 10 mM CHAPS (3-[(3cholamidopropyl)-dimethylammonio]-1-propanesulfonate) to solubilize proteins and lipids.
Table 2. Human erythrocyte ghosts (J. T. Dodge, et al (1963)) were treate
with 10 mM CHAPS, the solubilized extract incubated with agarose
immobilized enzymes overnight at 37° C. and the supernatant tested
in a hemagglutination inhibition assay (HAI). Purified glycosphingolipids
(Sigma or BioCarb Chemicals) were dissolved in saline and tested by HAI
using 4-8 HA50 units of virus capsid. (In the table, CTH is ceramide
trihexoside and the HAI titer is the dilution required to reduce the HA t
Table 3. Hemagglutination inhibition (HAI) titers red cell lipid
fractionated on different columns. Lipid was extracted from red cell
ghosts (9,12) and fractionated on either a silica gel or
DEAEcellulose-acetate column (13). Organic solvents were removed by
evaporation and salts removed by dialysis against water and
lyophilization. The residual pellets were resuspended in saline and teste
in the hemagglutination assay.

The next data set relates to B19 virus. The experiment in a line: Erythroid progenitor assay (CFU-E in methylcellulose) for B19 infection. The following applies: for Blocking of B19 cytotoxicity to CFU-E: B19 virus preincubated with globoceramide two hours, then bone marrow mononuclear cells two hours, CFU-E counted seven days later. Format: cell-based, parvovirus B19. How it is done: To establish the biological relevance of binding of virus to P antigen, globoceramides were tested for their ability to block vital infection of permissive cells, using the erythroid progenitor assay (P. P. Mortimer et al. (1983)). Parvovirus B19 is highly toxic to the production of erythroid colonies from late erythroid progenitors (CFU-E) in methylcellulose culture, and this system was used as an assay for B19 infection. In the study, binding of B19 antigen to P antigen was shown by competition of infection using globoside or monoclonal antibody to P antigen. First, B19 virus was preincubated with different globoceramides, e.g., lactosyl, triosyl, and Forssman (Sigma or BioCarb Chemicals) and with different globoside concentrations for two hours, and then mixed with bone marrow mononuclear cells for a further two hours. […] Second, mouse monoclonal antibodies to P-antigen (A. E. yon dem Borne et al. (1986)) or P1 or p^k (BioCarb Chemicals) were diluted 1:100 and incubated with bone marrow mononuclear cells for two hours. Purified B19 virus as above was added for a further two hours. The cell mixtures were plated in methylcellulose (P. Mortimer et al. (1983)) and CFU-E counted seven days later. […] There was no protection with similar antibodies against P1 or p^k.

Data set [2] has as its system B19 empty capsids. The experiment in a line: Binding of viral capsids to glycosphingolipids by thin layer chromatography. Also noted: species or system parvovirus B19. The following applies: 1 ug of purified glycosphingolipid on silica plate. How it is done:
Red cells from individuals with different blood group P system phenotypes were tested for their ability to agglutinate with parvovirus B19. Only cells containing P antigen hemagglutinated: P1 phenotype HA titer was 10,000; P2 phenotype HA titer was 5,000; P1^k and p phenotype were <200. […] Lipids were extracted from 0.2 mls packed red cells (H. Rose et al. (1965)) of patients with different P blood group phenotypes, dried and resuspended in 50 ul chloroform:methanol 1:1.20 ul of extract or 1 ug of each purified glycosphingolipid (Calbiochem) were applied to a silica plate (Merck) and chromatography performed with chloroform:methanol:water 65:25:4. Non-specific binding was blocked with 3% bovine albumin in phosphate buffered saline (16 hours) before the plates were sequentially incubated with B19 empty capsids, a human polyclonal anti-B19 serum, goat anti-human antibody conjugated with horse radish peroxidase, and developed with diaminobenzidene enhanced with cobalt chloride. The capsids bound to the globoside in P1 and P2 cells, and to purified globoside and Forssman antigen. B19 capsids and mouse monoclonal antibody to globoside (A. E. yon dem Borne et al. (1986)) bound to the same band on Western blotting of red cell extract, the putative "globoprotein" (Y. Tonegawa et al. (1977)).

For the compound `O[C@H](CS)[C@H](O)CS` (racemic) [Dithiothreitol], the “Change in HA titer (log2)” value in the data set on human red cells (time 1 hr, final conc. 4 mM) is given as 0 log2.

Turning to `OCCS` [2-Mercaptoethanol], the “Change in HA titer (log2)” value in the data set on human red cells (time 1 hr, final conc. 5 mM) is given as 0 log2.

`O=C(O)CN(CCN(CC(=O)O)CC(=O)O)CC(=O)O` [EDTA]: the “Change in HA titer (log2)” value with human red cells (time 1 hr, final conc. 5 mM) turned out to be 0 log2.

For `C=O` [Formaldehyde], the “Change in HA titer (log2)” value with human red cells (time 1 hr, final conc. 0.2%) was 0 log2.

Consider `[Na+].[O-][I+3]([O-])([O-])[O-]` [NaIO4, sodium periodate], for which, in the data set with human red cells (High concentrations (10 mM)), the “decrease in HA titer” value is listed as above 4 log2. Also, the “Change in HA titer (log2)” value is below -4 log2 in the data set on human red cells (time 15 min, final conc. 10 mM) and -1 log2 with human red cells (time 20 hr, final conc. 5 uM). The “Effect of red cell treatment on binding of virus to the erythrocytes” value in the data set with human red cells is given as “markedly reduced binding”.

On to Lactosyl ceramide, for which, in the data set with B19 empty capsids [1], the HAI titer is below 10. For the same compound, the “Blocking of B19 cytotoxicity to CFU-E” value in the data set with B19 virus was “no effect”.

In the case of Trypsin, the “Change in HA titer (log2)” value with human red cells (time 1 hr, final conc. 0.2%) was “+4 log2”. Further, in the data set on human red cells, the “Effect of red cell treatment on binding of virus to the erythrocytes” value is “increased binding”.

On to globotetraosylceramide [Globoside, P], for which, in the data set with B19 empty capsids [1], the “Inhibition of hemagglutination by B19” value is given as “inhibitory activity” and the HAI titer stood at 25600. The “Binding of B19 capsids on thin layer chromatography plate” value with B19 empty capsids [2] is given as “bound”. In the data set with B19 virus, the “Blocking of B19 cytotoxicity to CFU-E” value is “completely blocked”. In the data set on B19 virus (different globoside concentrations), the “Relationship of concentration to ability to block infectivity of mononuclear cells with B19 virus” value is listed as “positive linear relationship”.

In the data set with B19 empty capsids [1], globotriaosylceramide [CTH, P^k] returned an HAI titer below 10. In addition, the “Blocking of B19 cytotoxicity to CFU-E” value in the data set on B19 virus is reported as “no effect”.
